Patent US8853279B2, “Method for determining sensitivity or resistance to compounds that activate the brain serotonin system” (Cornell University, priority 2008, dated 2014)

Experiments:
P60 BDNF^Met/Met mice = assay: Two anxiety tests, response to chronic fluoxetine; assay type: in vivo
Source text: It was chosen to continue to use fluoxetine as it is the prototypic SSRI that has been established to increase BDNF levels, and for which a significant amount of clinical data on response to affective disorders.

mice = conditions: fluoxetine treatment at P4-P21; Ansorge et al. 2004; cited from earlier work
BDNF^Met mice = assay: Elevated plus maze at P90 after early life fluoxetine (P21-P40); assay type: in vivo; conditions: fluoxetine 18 mg/kg per day via drinking water P21-P40, tested at P90
Source text: (§1) FIG. 9. Anxiety-related behavior after early life flouxetine in BDNF Val66Met mice in the elevated plus maze test. (A). Percentage time spent in the open arm (B) and percentage of open arm entries in the plus maze, as well as (C) total distance traveled in wildtype) WT and BDNF^Met/Met (Met/Met) mice treated with water (H2O) or with flouxetine (FLX) from P21-P40. All results are presented as a mean±SEM determined from analysis of 5 mice/genotype (*p<0.05), Student's t test.
(§2) The feasibility of these timed pharmacological studies was first assessed. To BDNFMet mice, chronic fluoxetine (18 mg/kg per day) was administered via the drinking water from P21 (post-weaning)-P40 (adolescence) (FIG. 8) for a duration of time established to produce increased BDNF levels and anti-anxiety effects in adult mice [Dulawa, S. C., Holick, K. A., Gundersen, B., and Hen, R. (2004). Effects of chronic fluoxetine in animal models of anxiety and depression. Neuropsychopharmacology 29, 1321-1330; Duman, R. S., and Monteggia, L. M. (2006). A neurotrophic model for stress-related mood disorders. Biol Psychiatry 59, 1116-1127].
(§3) Early-life blockade of the 5-HT transporter alters emotional behavior in adult mice. Science 306, 879-881], which was not observed by this P21-P40 timed treatment.

wildtype mice = assay: as above; assay type: in vivo; conditions: fluoxetine 18 mg/kg per day via drinking water P21-P40, tested at P90
Source text: as §1, §2, §3

BDNF^Met/Met mice = assay: Novelty-induced hypophagia after long-term fluoxetine in adult mice; assay type: in vivo; conditions: adult P60 BDNF^Met/Met mice; fluoxetine orally 18 mg/kg of body weight per day for 21 days
Experimental: A common treatment for depression and anxiety disorders in humans is administering serotonin reuptake inhibitors (SSRI's), for which one postulated mechanism of action involves increasing BDNF levels (R. S. Duman, L. M. Monteggia, Biol Psychiatry 59, 1116 (Jun. 15, 2006)). Adult P60 BDNF^Met/Met mice were treated orally with fluoxetine (18 mg/kg of body weight per day) or vehicle for 21 days before assessment in novelty-induced hypophagia. In this conflict test, mice are trained to approach a reward (sweetened milk) in their home cage and then placed in a novel brightly lit cage. The latency to approach and drink the sweetened milk is a measure of the anxiety-related behavior associated with this task (S. C. Dulawa, K. A. Holick, B. Gundersen, R. Hen, Neuropsychopharmacology 29, 1321 (July, 2004)).

CNCCC(Oc1ccc(C(F)(F)F)cc1)c1ccccc1 (centres unmarked) [fluoxetine]
response to chronic fluoxetine as measured by two anxiety tests (P60 BDNF^Met/Met mice): decreased response | anxiety-related behaviors (mice): increased anxiety-related behaviors | anxiety-related behavior in the elevated plus maze test (BDNF^Met mice): rescue of altered anxiety-related behavior | anxiety-related behaviors in the elevated plus maze test (wildtype mice): No effects were observed | latency to drink in the novel cage (BDNF^Met/Met mice): did not significantly decrease
